According to ChEMBL document CHEMBL4507267 (2021):

Columns and labels:
[1] = tested on: Tyrosine-protein kinase ABL1 (Homo sapiens), P00519 [H396P]; conditions: Compound concentration 1000.0 nM
[2] = tested on: Tyrosine-protein kinase ABL1 (Homo sapiens), P00519 [M351T]; conditions: Compound concentration 1000.0 nM
[3] = biological target: Activin receptor type-2B (Homo sapiens) (UniProt Q13705); conditions: Compound concentration 1000.0 nM
[4] = biological target: Activin receptor type-1-like (Homo sapiens) (UniProt P37023); conditions: Compound concentration 1000.0 nM
[5] = tested on: ALK tyrosine kinase receptor (Homo sapiens), Q9UM73 [L1196M]; conditions: Compound concentration 1000.0 nM
[6] = biological target: Tyrosine-protein kinase receptor UFO (Homo sapiens) (UniProt P30530); conditions: Compound concentration 1000.0 nM
[7] = biological target: Citron Rho-interacting kinase (Homo sapiens) (UniProt O14578); conditions: Compound concentration 1000.0 nM
[8] = biological target: Casein kinase I isoform delta (Homo sapiens) (UniProt P48730); conditions: Compound concentration 1000.0 nM
[9] = biological target: Megakaryocyte-associated tyrosine-protein kinase (Homo sapiens) (UniProt P42679); conditions: Compound concentration 1000.0 nM
[10] = biological target: Mitogen-activated protein kinase kinase kinase 12 (Homo sapiens) (UniProt Q12852); conditions: Compound concentration 1000.0 nM
[11] = biological target: Epidermal growth factor receptor (Homo sapiens) (UniProt P00533); conditions: Compound concentration 1000.0 nM
[12] = biological target: Ephrin type-A receptor 8 (Homo sapiens) (UniProt P29322); conditions: Compound concentration 1000.0 nM
[13] = biological target: Mitogen-activated protein kinase 6 (Homo sapiens) (UniProt Q16659); conditions: Compound concentration 1000.0 nM
[14] = tested on: Receptor-type tyrosine-protein kinase FLT3 (Homo sapiens), P36888 [UNDEFINED MUTATION]; conditions: Compound concentration 1000.0 nM
[15] = biological target: G protein-coupled receptor kinase 4 (Homo sapiens) (UniProt P32298); conditions: Compound concentration 1000.0 nM
[16] = biological target: Serine/threonine-protein kinase haspin (Homo sapiens) (UniProt Q8TF76); conditions: Compound concentration 1000.0 nM
[17] = biological target: Homeodomain-interacting protein kinase 2 (Homo sapiens) (UniProt Q9H2X6); conditions: Compound concentration 1000.0 nM
[18] = biological target: Hormonally up-regulated neu tumor-associated kinase (Homo sapiens) (UniProt P57058); conditions: Compound concentration 1000.0 nM
[19] = biological target: Interleukin-1 receptor-associated kinase 3 (Homo sapiens) (UniProt Q9Y616); conditions: Compound concentration 1000.0 nM
[20] = biological target: Serine/threonine-protein kinase STK11 (Homo sapiens) (UniProt Q15831); conditions: Compound concentration 1000.0 nM
[21] = biological target: Leukocyte tyrosine kinase receptor (Homo sapiens) (UniProt P29376); conditions: Compound concentration 1000.0 nM
[22] = biological target: MAP kinase-activated protein kinase 5 (Homo sapiens) (UniProt Q8IW41); conditions: Compound concentration 1000.0 nM
[23] = biological target: MAP/microtubule affinity-regulating kinase 4 (Homo sapiens) (UniProt Q96L34); conditions: Compound concentration 1000.0 nM
[24] = biological target: Maternal embryonic leucine zipper kinase (Homo sapiens) (UniProt Q14680); conditions: Compound concentration 1000.0 nM
[25] = tested on: Hepatocyte growth factor receptor (Homo sapiens), P08581 [M1250T]; conditions: Compound concentration 1000.0 nM
[26] = biological target: Serine/threonine-protein kinase 4 (Homo sapiens) (UniProt Q13043); conditions: Compound concentration 1000.0 nM
[27] = biological target: Serine/threonine-protein kinase 3 (Homo sapiens) (UniProt Q13188); conditions: Compound concentration 1000.0 nM
[28] = biological target: Serine/threonine-protein kinase 38 (Homo sapiens) (UniProt Q15208); conditions: Compound concentration 1000.0 nM
[29] = biological target: Serine/threonine-protein kinase NLK (Homo sapiens) (UniProt Q9UBE8); conditions: Compound concentration 1000.0 nM
[30] = biological target: Platelet-derived growth factor receptor alpha (Homo sapiens) (UniProt P16234); conditions: Compound concentration 1000.0 nM
[31] = biological target: Phosphorylase b kinase gamma catalytic chain, skeletal muscle/heart isoform (Homo sapiens) (UniProt Q16816); conditions: Compound concentration 1000.0 nM
[32] = biological target: Protein kinase C delta type (Homo sapiens) (UniProt Q05655); conditions: Compound concentration 1000.0 nM
[33] = biological target: Protein kinase C epsilon type (Homo sapiens) (UniProt Q02156); conditions: Compound concentration 1000.0 nM
[34] = biological target: Dual serine/threonine and tyrosine protein kinase (Homo sapiens) (UniProt Q6XUX3); conditions: Compound concentration 1000.0 nM
[35] = biological target: Rho-associated protein kinase 1 (Homo sapiens) (UniProt Q13464); conditions: Compound concentration 1000.0 nM
[36] = biological target: Ribosomal protein S6 kinase alpha-3 (Homo sapiens) (UniProt P51812); conditions: Compound concentration 1000.0 nM
[37] = biological target: Ribosomal protein S6 kinase alpha-6 (Homo sapiens) (UniProt Q9UK32); conditions: Compound concentration 1000.0 nM
[38] = biological target: Tyrosine-protein kinase receptor Tie-1 (Homo sapiens) (UniProt P35590); conditions: Compound concentration 1000.0 nM
[39] = biological target: Serine/threonine-protein kinase tousled-like 2 (Homo sapiens) (UniProt Q86UE8); conditions: Compound concentration 1000.0 nM
[40] = biological target: Tyrosine-protein kinase receptor TYRO3 (Homo sapiens) (UniProt Q06418); conditions: Compound concentration 1000.0 nM
[41] = biological target: Serine/threonine-protein kinase ULK1 (Homo sapiens) (UniProt O75385); conditions: Compound concentration 1000.0 nM
[42] = biological target: GABA-A receptor; anion channel (Rattus norvegicus) (UniProt O09028+P15431+P18506+P18508+P19969+P20236+P23574+P23576+P28471+P28473+P30191+P62813+P63079+P63138+Q91ZM7+Q9ES14); conditions: Compound concentration 10.0 uM
[43] = biological target: Alpha-2B adrenergic receptor (Homo sapiens) (UniProt P18089); conditions: Compound concentration 10.0 uM
[44] = biological target: Beta-2 adrenergic receptor (Homo sapiens) (UniProt P07550); conditions: Compound concentration 10.0 uM

Sequence of Rho-associated protein kinase 1 (Homo sapiens) (Q13464 2-1354 limits assumed): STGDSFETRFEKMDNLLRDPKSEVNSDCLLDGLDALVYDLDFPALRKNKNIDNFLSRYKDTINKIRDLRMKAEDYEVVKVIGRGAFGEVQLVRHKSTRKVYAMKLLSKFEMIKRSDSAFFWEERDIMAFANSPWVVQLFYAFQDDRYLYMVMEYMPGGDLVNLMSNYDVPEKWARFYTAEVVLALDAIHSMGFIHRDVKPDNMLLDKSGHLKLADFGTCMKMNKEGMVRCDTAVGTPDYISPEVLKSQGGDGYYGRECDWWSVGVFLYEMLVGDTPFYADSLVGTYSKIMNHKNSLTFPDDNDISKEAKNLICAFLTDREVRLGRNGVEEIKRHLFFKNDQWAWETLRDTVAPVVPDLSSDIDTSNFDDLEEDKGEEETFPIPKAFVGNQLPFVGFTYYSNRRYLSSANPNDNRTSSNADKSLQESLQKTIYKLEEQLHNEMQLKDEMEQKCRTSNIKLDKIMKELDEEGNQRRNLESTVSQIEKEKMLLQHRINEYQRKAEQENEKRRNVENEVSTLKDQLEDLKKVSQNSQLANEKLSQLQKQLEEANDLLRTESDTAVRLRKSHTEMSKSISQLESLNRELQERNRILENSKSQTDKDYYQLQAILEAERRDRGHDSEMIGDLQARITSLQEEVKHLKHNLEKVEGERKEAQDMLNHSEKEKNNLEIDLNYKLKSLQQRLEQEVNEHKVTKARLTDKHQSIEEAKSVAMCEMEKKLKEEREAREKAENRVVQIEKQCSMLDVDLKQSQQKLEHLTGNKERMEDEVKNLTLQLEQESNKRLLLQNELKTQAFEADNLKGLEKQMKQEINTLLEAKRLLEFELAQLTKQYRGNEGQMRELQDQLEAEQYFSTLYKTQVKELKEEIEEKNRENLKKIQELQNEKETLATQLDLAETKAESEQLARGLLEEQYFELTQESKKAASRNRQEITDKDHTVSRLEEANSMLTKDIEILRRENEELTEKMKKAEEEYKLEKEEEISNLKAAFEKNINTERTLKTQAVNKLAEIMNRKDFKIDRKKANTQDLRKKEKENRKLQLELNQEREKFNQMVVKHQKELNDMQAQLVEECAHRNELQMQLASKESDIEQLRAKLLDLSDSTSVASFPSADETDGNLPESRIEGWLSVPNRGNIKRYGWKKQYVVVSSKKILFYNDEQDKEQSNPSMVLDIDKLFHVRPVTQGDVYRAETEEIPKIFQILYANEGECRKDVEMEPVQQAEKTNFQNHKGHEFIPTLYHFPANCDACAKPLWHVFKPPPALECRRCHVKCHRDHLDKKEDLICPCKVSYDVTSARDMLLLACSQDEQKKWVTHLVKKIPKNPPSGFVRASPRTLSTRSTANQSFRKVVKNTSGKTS
Sequence of Activin receptor type-2B (Homo sapiens) (Q13705 whole entry): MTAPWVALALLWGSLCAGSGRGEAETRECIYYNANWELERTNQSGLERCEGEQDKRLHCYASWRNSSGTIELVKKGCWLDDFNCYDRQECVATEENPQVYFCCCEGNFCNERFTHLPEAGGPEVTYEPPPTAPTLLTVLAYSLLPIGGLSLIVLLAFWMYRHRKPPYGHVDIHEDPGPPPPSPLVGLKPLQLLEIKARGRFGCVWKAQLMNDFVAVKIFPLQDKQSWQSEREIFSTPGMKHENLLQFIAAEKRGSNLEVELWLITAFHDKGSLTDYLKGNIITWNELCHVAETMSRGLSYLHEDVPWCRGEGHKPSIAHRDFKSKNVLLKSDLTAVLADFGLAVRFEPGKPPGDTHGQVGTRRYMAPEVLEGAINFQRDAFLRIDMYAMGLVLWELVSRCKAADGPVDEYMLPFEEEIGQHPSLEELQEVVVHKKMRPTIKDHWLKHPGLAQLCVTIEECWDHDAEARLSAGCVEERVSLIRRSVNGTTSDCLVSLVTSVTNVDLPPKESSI
Sequence of Tyrosine-protein kinase receptor TYRO3 (Homo sapiens) (Q06418 whole entry): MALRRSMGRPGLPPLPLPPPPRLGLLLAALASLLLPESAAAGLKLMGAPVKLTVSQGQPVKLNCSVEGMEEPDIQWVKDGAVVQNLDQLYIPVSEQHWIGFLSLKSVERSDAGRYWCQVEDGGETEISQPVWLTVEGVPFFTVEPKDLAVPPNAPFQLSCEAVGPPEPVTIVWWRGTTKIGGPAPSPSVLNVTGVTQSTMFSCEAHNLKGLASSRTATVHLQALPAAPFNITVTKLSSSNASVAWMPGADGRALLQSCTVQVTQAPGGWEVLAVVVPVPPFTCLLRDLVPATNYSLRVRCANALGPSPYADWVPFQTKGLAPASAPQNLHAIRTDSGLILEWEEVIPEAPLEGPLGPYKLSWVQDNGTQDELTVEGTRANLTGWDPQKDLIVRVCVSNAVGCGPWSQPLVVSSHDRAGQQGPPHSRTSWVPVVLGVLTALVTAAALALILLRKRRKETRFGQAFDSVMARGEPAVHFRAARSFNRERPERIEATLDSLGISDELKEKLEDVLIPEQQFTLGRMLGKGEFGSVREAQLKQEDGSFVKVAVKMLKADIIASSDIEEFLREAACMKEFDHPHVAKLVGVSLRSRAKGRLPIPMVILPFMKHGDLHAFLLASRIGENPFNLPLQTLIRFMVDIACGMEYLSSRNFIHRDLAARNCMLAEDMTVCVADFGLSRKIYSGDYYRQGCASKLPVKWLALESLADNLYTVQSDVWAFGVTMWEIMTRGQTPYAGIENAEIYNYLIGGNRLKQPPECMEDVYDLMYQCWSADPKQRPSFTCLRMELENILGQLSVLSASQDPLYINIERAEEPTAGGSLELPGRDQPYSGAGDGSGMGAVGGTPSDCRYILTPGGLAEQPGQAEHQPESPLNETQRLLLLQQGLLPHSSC
Sequence of Homeodomain-interacting protein kinase 2 (Homo sapiens) (Q9H2X6 whole entry, looked up): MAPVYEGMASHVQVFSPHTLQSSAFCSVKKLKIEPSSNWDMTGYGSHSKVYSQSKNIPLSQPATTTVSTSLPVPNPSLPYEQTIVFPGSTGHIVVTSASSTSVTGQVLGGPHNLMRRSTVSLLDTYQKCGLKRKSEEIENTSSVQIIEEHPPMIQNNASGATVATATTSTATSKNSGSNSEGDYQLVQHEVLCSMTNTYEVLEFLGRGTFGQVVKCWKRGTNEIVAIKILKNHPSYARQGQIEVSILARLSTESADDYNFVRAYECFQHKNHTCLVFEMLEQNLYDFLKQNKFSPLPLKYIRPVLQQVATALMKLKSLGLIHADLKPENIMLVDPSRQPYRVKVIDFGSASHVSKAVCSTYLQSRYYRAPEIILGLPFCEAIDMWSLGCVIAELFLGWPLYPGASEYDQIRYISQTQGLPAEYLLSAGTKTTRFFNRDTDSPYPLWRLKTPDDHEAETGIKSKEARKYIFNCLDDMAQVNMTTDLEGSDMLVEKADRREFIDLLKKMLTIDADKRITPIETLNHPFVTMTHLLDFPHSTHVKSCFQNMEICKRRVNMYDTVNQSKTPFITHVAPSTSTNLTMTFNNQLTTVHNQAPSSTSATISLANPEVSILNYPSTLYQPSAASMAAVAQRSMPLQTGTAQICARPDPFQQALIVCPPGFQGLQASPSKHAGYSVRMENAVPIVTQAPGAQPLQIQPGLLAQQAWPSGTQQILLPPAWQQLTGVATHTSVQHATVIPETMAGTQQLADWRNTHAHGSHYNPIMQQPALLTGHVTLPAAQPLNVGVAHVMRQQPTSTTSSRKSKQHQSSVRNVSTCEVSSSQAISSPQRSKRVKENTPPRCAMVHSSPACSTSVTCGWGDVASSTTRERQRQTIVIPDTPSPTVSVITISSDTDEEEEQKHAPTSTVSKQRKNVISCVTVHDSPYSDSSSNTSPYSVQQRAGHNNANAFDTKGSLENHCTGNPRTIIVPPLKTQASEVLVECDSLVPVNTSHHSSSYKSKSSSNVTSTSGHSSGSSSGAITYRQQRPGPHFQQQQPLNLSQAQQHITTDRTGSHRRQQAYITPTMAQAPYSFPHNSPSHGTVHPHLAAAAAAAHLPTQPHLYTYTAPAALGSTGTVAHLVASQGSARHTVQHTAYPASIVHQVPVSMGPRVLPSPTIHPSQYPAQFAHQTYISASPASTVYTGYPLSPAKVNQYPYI
Sequence of Leukocyte tyrosine kinase receptor (Homo sapiens) (P29376 whole entry): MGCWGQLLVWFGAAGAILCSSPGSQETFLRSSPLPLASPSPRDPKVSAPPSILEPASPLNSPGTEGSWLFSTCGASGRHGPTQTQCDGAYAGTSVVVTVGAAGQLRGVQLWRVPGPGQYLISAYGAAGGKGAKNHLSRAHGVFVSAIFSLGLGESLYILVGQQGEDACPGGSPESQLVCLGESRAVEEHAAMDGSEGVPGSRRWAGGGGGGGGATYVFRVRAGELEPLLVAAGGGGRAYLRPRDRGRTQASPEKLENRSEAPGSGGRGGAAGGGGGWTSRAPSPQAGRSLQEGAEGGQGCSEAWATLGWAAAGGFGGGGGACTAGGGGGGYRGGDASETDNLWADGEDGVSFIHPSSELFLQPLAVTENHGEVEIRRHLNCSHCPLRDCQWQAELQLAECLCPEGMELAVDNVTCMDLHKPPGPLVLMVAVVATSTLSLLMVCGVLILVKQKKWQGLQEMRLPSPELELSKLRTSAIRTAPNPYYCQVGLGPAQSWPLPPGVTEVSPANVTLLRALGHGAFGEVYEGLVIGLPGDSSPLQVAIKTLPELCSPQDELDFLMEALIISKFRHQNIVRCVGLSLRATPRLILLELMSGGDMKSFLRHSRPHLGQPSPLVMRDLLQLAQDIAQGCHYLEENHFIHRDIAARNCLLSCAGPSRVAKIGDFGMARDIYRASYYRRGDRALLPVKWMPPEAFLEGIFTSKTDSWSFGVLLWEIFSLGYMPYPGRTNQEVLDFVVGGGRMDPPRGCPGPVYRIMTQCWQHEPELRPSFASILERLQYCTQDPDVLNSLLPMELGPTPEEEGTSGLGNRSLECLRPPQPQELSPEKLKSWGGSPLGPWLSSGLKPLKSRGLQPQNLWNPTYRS

Cc1c(NC(=O)c2cc(C(N)=O)nc3cc(F)ccc23)c(C(F)(F)F)nn1Cc1ccc(C(C)(C)C)cc1 [BAY-588]
inactive: residual activity [1] 100% | residual activity [2] 100% | residual activity [3] 100% | residual activity [4] 94% | residual activity [5] 83% | residual activity [6] 100% | residual activity [7] 100% | residual activity [8] 81% | residual activity [9] 66% | residual activity [10] 100% | residual activity [11] 100% | residual activity [12] 100% | residual activity [13] 79% | residual activity [14] 100% | residual activity [15] 100% | residual activity [16] 100% | residual activity [17] 100% | residual activity [18] 100% | residual activity [19] 100% | residual activity [20] 100% | residual activity [21] 83% | residual activity [22] 87% | residual activity [23] 97% | residual activity [24] 100% | residual activity [25] 88% | residual activity [26] 95% | residual activity [27] 90% | residual activity [28] 93% | residual activity [29] 100% | residual activity [30] 100% | residual activity [31] 100% | residual activity [32] 100% | residual activity [33] 67% | residual activity [34] 89% | residual activity [35] 100% | residual activity [36] 100% | residual activity [37] 100% | residual activity [38] 100% | residual activity [39] 100% | residual activity [40] 100% | residual activity [41] 98% | inhibition [42] 9.54% | inhibition [43] 15.6% | inhibition [44] 24.1%

Cc1c(NC(=O)c2cc(C(N)=O)nc3cc(F)ccc23)c(C(F)(F)F)nn1Cc1ccc(C#N)cc1 [BAY-876]
inactive: residual activity [1] 100% | residual activity [2] 87% | residual activity [3] 93% | residual activity [4] 100% | residual activity [5] 83% | residual activity [6] 100% | residual activity [7] 81% | residual activity [8] 76% | residual activity [9] 66% | residual activity [10] 89% | residual activity [11] 100% | residual activity [12] 91% | residual activity [13] 88% | residual activity [14] 68% | residual activity [15] 100% | residual activity [16] 67% | residual activity [17] 83% | residual activity [18] 77% | residual activity [19] 94% | residual activity [20] 100% | residual activity [21] 82% | residual activity [22] 84% | residual activity [23] 100% | residual activity [24] 90% | residual activity [25] 91% | residual activity [26] 84% | residual activity [27] 96% | residual activity [28] 94% | residual activity [29] 100% | residual activity [30] 73% | residual activity [31] 100% | residual activity [32] 95% | residual activity [33] 74% | residual activity [34] 78% | residual activity [35] 97% | residual activity [36] 82% | residual activity [37] 66% | residual activity [38] 81% | residual activity [39] 100% | residual activity [40] 81% | residual activity [41] 81% | inhibition [42] 2.64% | inhibition [43] 7.66% | inhibition [44] 21.7%
